Data taken from the RepoRT retention time repository.

assay: Waters SunFire C18, 150 × 2.1 mm, 3.5 µm, 25 °C, 0.25 mL/min, estimated dead time 1.3 min; A: water + 0.1% formic acid; B: methanol; gradient (min/%B) 0/5 30/100; conditions: stereoisomer not certain

Row | SMILES | LC retention time
1 | CC=C1CN2C3CC1C1(C(=O)OC)C2CC2(c4ccccc4N(C)C32)C1O (stereo not drawn) | 12 min
2 | CC1OCC2C3CC4(O)N(CCC45c4ccccc4N(C(=O)CO)C25)CC13 (stereo not drawn) | 11.8 min
3 | COc1cc2c(cc1OC)C13CCN4CC5=CCOC6CC(=O)N2C1C6C5CC43 (stereo not drawn) | 12.9 min
4 | CC=C1C[n+]2ccc3c([nH]c4ccccc43)c2CC1CCO (stereo not drawn) | 16.7 min
5 | CCC1CC2CN3CCc4c([nH]c5cc(OC)c(OC)cc45)C(C(=O)OC)(C2)C13 (stereo not drawn) | 16.3 min
6 | C=CC(CO)C1CCN2CCc3c([nH]c4ccccc34)C2C1 (stereo not drawn) | 18.5 min
7 | CC=C1CN2C3CC1C1(C(=O)OC)C2CC2(c4ccccc4NC32)C1O (stereo not drawn) | 14.9 min
8 | CCC1(O)C(=O)OCc2c1cc1n(c2=O)Cc2cc3ccccc3nc2-1 (stereo not drawn) | 27.2 min
9 | CC=C(C=O)C1CC2c3c(c4ccccc4n3C(O)C1)CCN2C (stereo not drawn) | 16.1 min
10 | CC=C1CN2C(C3=CC4C5CC6N(CCC67c6ccccc6N(C3=O)C47)CC5=CC)CC34c5ccccc5N5C(=O)CC=C(C1CC23)C54 (stereo not drawn) | 16 min
11 | CCC1NC2CC3(C(=O)N(OC)c4cc(OC)ccc43)C3CC1C2CO3 (stereo not drawn) | 16.3 min
12 | CC1OC=C2C(=O)N3CCc4c([nH]c5ccccc45)C3CC2C1C=O (stereo not drawn) | 27.3 min
13 | CC=C1CN2C3CC1C(C=O)C2Cc1c3[nH]c2ccccc12 (stereo not drawn) | 14.7 min
14 | CC=C1CN2C3CC1C1(C(=O)OC)C2CC2(c4cc(O)ccc4N(C)C32)C1OC(=O)c1cc(OC)c(OC)c(OC)c1 (stereo not drawn) | 15.8 min
15 | COC(=O)C1=C2Nc3ccccc3C23CCN2CC(C(C)O)C1CC23 (stereo not drawn) | 10.8 min
16 | CC=C1C[N+]2(C)CCC34C(=C(C=O)C1CC32)Nc1ccccc14 (stereo not drawn) | 11.3 min
17 | C=C1c2[nH]c3ccccc3c2CN2CCC1C(=CC)C2 (stereo not drawn) | 9.26 min
18 | CCC1CN2CCc3c([nH]c4cc(OC)c(OC)cc34)C2CC1CCO (stereo not drawn) | 16.6 min
19 | CC=C1CN2CCC34c5cc(O)ccc5N(C)C35OCC4(C(=O)OC)C1CC25 (stereo not drawn) | 14.3 min
20 | C=CC1CN2CCC3(C(=O)Nc4cc(O)ccc43)C2CC1CC1c2[nH]c3ccccc3c2CCN1C (stereo not drawn) | 11.9 min
21 | CCC1CC2CN3CCc4c([nH]c5ccccc45)C(C(=O)OC)(C2)C13 (stereo not drawn) | 16.9 min

The remaining lines, values ahead:

Row | LC retention time | SMILES
22 | 8.71 min | C=CC1CN2CCC3(C(=O)Nc4c3ccc(O)c4C3CCCN3C)C2CC1CC1c2[nH]c3ccccc3c2CCN1C (stereo not drawn)
23 | 17.8 min | CC=C1CN2C3CC1C1(C(=O)OC)C2CC2(c4ccccc4N(C)C32)C1OC(=O)C=Cc1cc(OC)c(OC)c(OC)c1 (stereo not drawn)
24 | 13.4 min | CC=C1C[N+]2([O-])CCC34Cc5cc6c(cc5OC35C2CC1C(C(=O)OC)N5c1ccccc14)NC12CCC3(CC)CCC[N+]1(CCC62O)C3 (stereo not drawn)
25 | 16.7 min | CCC12C=CCN3CCC4(C(=C(C(=O)OC)C1)Nc1cc(O)c(C5C=CC6(CC)CC(C(=O)OC)=C7Nc8c(O)cccc8C78CCN5C68)cc14)C32 (stereo not drawn)
26 | 13.4 min | CC=C1CNC2Cc3c([nH]c4ccccc34)C(=O)CC1C2C(=O)OC (stereo not drawn)
27 | 15.8 min | CC=C1C[n+]2ccc3c([nH]c4ccccc43)c2CC1C(C(=O)OC)C1OCC2C3CC4N(CCC45c4ccccc4N1C25)CC3CC (stereo not drawn)
28 | 15.1 min | COC(=O)C1CC23CCCN4C(=O)CC5(c6ccccc6N(C)C15CC2)C43 (stereo not drawn)
29 | 16 min | CCC12CC(C(=O)OC)=C3Nc4ccccc4C34CCN(C(c3ccc5c(c3)C3CCN6CC7OC7C7(CC)CCC3(N5)C67)C3OC31)C42 (stereo not drawn)
30 | 17.2 min | COC(=O)C1CC23CCC[N+]4([O-])CCC5(c6ccccc6N(C(=O)OC)C15CC2)C34 (stereo not drawn)
31 | 23.3 min | COC(=O)C1=C2Nc3ccccc3C23CCN2CC4(CC5CC67CCOC6CCN6CCC8(c9cccc(OC)c9N(C4)C58O)C67)C4OCCC4(C1)C23 (stereo not drawn)
32 | 18.1 min | CCC12CCCN3C(=O)C=C(c4ccccc4NC(=O)CC1)C32O (stereo not drawn)
33 | 17.4 min | CC=C1CN2CCC34CC5C6CC7c8c(c9ccccc9n8C)CC(C6COC5(C)OC35C2CC1C(C(=O)OC)N5c1ccccc14)N7C (stereo not drawn)
